Test results as given in US7432397B2, “Imaging compounds” (Hammersmith Imanet Ltd., priority 2002, dated 2008).
Marks after values point to notes of the source that are not given here.

Assay: Biodistribution of radioactivity in rat tissues after intravenous injection
Assay type: in vivo
Conditions: for Radioactivity in Cerebellum / Radioactivity in Entorhinal cortex / Radioactivity in Fat / Radioactivity in Heart (ventricle) / Radioactivity in Hippocampus / Radioactivity in Hypothalamus / Radioactivity in Inferior collicull / Radioactivity in Kidney / Radioactivity in Large intestine / Radioactivity in Lge. intestine content / Radioactivity in Liver / Radioactivity in Lung / Radioactivity in Medulla with Pons / Radioactivity in Olfactory bulbs / Radioactivity in Olfactory tubercles / Radioactivity in Prefrontal cortex / Radioactivity in Skeletal muscle / Radioactivity in Skin / Radioactivity in Sm. intestine content / Radioactivity in Small intestine / Radioactivity in Somatosensory cortex / Radioactivity in Spleen / Radioactivity in Stomach / Radioactivity in Striata / Radioactivity in Superior collicull / Radioactivity in Testis / Radioactivity in Thalamus / Radioactivity in Visual cortex / Radioactivity in Plasma / Radioactivity in Whole blood / Radioactivity in Urine: i.v.; for Radioactivity in Plasma / Radioactivity in Whole blood: composite curve of 9 rats
Method: Sixteen adult male Sprague-Dawley rats (body weight 250-320 g: mean±SD=288±25 g) were used in 5 separate experiments. Each rat was injected with ˜13 MBq Compound 1, at a specific activity of […], via a previously catheterised tail vein. The associated stable compound was 0.5±0.2 nmol/kg. Discrete samples of arterial blood were collected from 9 of the rats via a previously catheterised tail artery.
Tissues were sampled post-mortem using an established protocol, as described in Hirani et al, Synapse 42:164-176 (2001). The radioactivity concentration data obtained at 12 times up to 90 min after radioligand injection were normalised for both amount injected and body weight, giving:—‘uptake units’=(cpm/g tissue)/(injected cpm/g body weight).

CSc1cccc(N([11CH3])C(=N)Nc2cc(SC)ccc2Cl)c1 [Compound 1, (N-(2-chloro-5-(methylthio)phenyl)-N′-(3-methylthio)phenyl)-N′-[N-methyl-^11C]-methylguanidine]
extraction of radioactivity into the brain (following intravenous injection): high extraction
Radioactivity in Cerebellum (1 min): 2.21 Uptake Units
Radioactivity in Entorhinal cortex (1 min): 1.92 Uptake Units
Radioactivity in Fat (1 min): 0.15 Uptake Units
Radioactivity in Heart (ventricle) (1 min): 10.4 Uptake Units
Radioactivity in Hippocampus (1 min): 1.61 Uptake Units
Radioactivity in Hypothalamus (1 min): 2.31 Uptake Units
Radioactivity in Inferior collicull (1 min): 3.42 Uptake Units
Radioactivity in Kidney (1 min): 12.5 Uptake Units
Radioactivity in Large intestine (1 min): 2.71 Uptake Units
Radioactivity in Lge. intestine content (1 min): 0.11 Uptake Units
Radioactivity in Liver (1 min): 2.48 Uptake Units
Radioactivity in Lung (1 min): 56.4 Uptake Units
Radioactivity in Medulla with Pons (1 min): 2.18 Uptake Units
Radioactivity in Olfactory bulbs (1 min): 2.34 Uptake Units
Radioactivity in Olfactory tubercles (1 min): 2.49 Uptake Units
Radioactivity in Prefrontal cortex (1 min): 2.52 Uptake Units
Radioactivity in Skeletal muscle (1 min): 1.07 Uptake Units
Radioactivity in Skin (1 min): 0.47 Uptake Units
Radioactivity in Sm. intestine content (1 min): 4.96 Uptake Units
Radioactivity in Small intestine (1 min): 3.38 Uptake Units
Radioactivity in Somatosensory cortex (1 min): 2.22 Uptake Units
Radioactivity in Spleen (1 min): 3.04 Uptake Units
Radioactivity in Stomach (1 min): 1.60 Uptake Units
Radioactivity in Striata (1 min): 2.13 Uptake Units
Radioactivity in Superior collicull (1 min): 2.42 Uptake Units
Radioactivity in Testis (1 min): 0.50 Uptake Units
Radioactivity in Thalamus (1 min): 2.59 Uptake Units
Radioactivity in Visual cortex (1 min): 2.46 Uptake Units
Radioactivity in Plasma (1 min): 0.51 Uptake Units
Radioactivity in Whole blood (1 min): 0.59 Uptake Units
Radioactivity in Cerebellum (2 min): 2.47 Uptake Units
Radioactivity in Entorhinal cortex (2 min): 2.13 Uptake Units
Radioactivity in Fat (2 min): 0.18 Uptake Units
Radioactivity in Heart (ventricle) (2 min): 8.20 Uptake Units
Radioactivity in Hippocampus (2 min): 1.73 Uptake Units
Radioactivity in Hypothalamus (2 min): 2.29 Uptake Units
Radioactivity in Inferior collicull (2 min): 3.65 Uptake Units
Radioactivity in Kidney (2 min): 10.8 Uptake Units
Radioactivity in Large intestine (2 min): 3.11 Uptake Units
Radioactivity in Lge. intestine content (2 min): 0.21 Uptake Units
Radioactivity in Liver (2 min): 1.65 Uptake Units
Radioactivity in Lung (2 min): 44.5 Uptake Units
Radioactivity in Medulla with Pons (2 min): 2.35 Uptake Units
Radioactivity in Olfactory bulbs (2 min): 2.50 Uptake Units
Radioactivity in Olfactory tubercles (2 min): 2.56 Uptake Units
Radioactivity in Prefrontal cortex (2 min): 2.73 Uptake Units
Radioactivity in Skeletal muscle (2 min): 1.14 Uptake Units
Radioactivity in Skin (2 min): 0.54 Uptake Units
Radioactivity in Sm. intestine content (2 min): 5.62 Uptake Units
Radioactivity in Small intestine (2 min): 3.87 Uptake Units
Radioactivity in Somatosensory cortex (2 min): 2.56 Uptake Units
Radioactivity in Spleen (2 min): 2.65 Uptake Units
Radioactivity in Stomach (2 min): 1.49 Uptake Units
Radioactivity in Striata (2 min): 2.33 Uptake Units
Radioactivity in Superior collicull (2 min): 2.64 Uptake Units
Radioactivity in Testis (2 min): 0.51 Uptake Units
Radioactivity in Thalamus (2 min): 2.41 Uptake Units
Radioactivity in Visual cortex (2 min): 2.71 Uptake Units
Radioactivity in Plasma (2 min): 0.37 Uptake Units
Radioactivity in Whole blood (2 min): 0.42 Uptake Units
Radioactivity in Cerebellum (5 min): 2.43 Uptake Units
Radioactivity in Entorhinal cortex (5 min): 2.16 Uptake Units
Radioactivity in Fat (5 min): 0.23 Uptake Units
Radioactivity in Heart (ventricle) (5 min): 4.27 Uptake Units
Radioactivity in Hippocampus (5 min): 2.00 Uptake Units
Radioactivity in Hypothalamus (5 min): 2.28 Uptake Units
Radioactivity in Inferior collicull (5 min): 3.23 Uptake Units
Radioactivity in Kidney (5 min): 8.70 Uptake Units
Radioactivity in Large intestine (5 min): 2.73 Uptake Units
Radioactivity in Lge. intestine content (5 min): 0.13 Uptake Units
Radioactivity in Liver (5 min): 2.95 Uptake Units
Radioactivity in Lung (5 min): 38.7 Uptake Units
Radioactivity in Medulla with Pons (5 min): 2.34 Uptake Units
Radioactivity in Olfactory bulbs (5 min): 2.18 Uptake Units
Radioactivity in Olfactory tubercles (5 min): 2.42 Uptake Units
Radioactivity in Prefrontal cortex (5 min): 2.67 Uptake Units
Radioactivity in Skeletal muscle (5 min): 1.32 Uptake Units
Radioactivity in Skin (5 min): 0.61 Uptake Units
Radioactivity in Sm. intestine content (5 min): 6.84 Uptake Units
Radioactivity in Small intestine (5 min): 3.17 Uptake Units
Radioactivity in Somatosensory cortex (5 min): 2.69 Uptake Units
Radioactivity in Spleen (5 min): 3.85 Uptake Units
Radioactivity in Stomach (5 min): 1.26 Uptake Units
Radioactivity in Striata (5 min): 2.35 Uptake Units
Radioactivity in Superior collicull (5 min): 2.59 Uptake Units
Radioactivity in Testis (5 min): 0.56 Uptake Units
Radioactivity in Thalamus (5 min): 2.59 Uptake Units
Radioactivity in Urine (5 min): 11.7 Uptake Units
Radioactivity in Visual cortex (5 min): 3.05 Uptake Units
Radioactivity in Plasma (5 min): 0.24 Uptake Units
Radioactivity in Whole blood (5 min): 0.26 Uptake Units
Radioactivity in Cerebellum (10 min): 2.08 Uptake Units
Radioactivity in Entorhinal cortex (10 min): 2.04 Uptake Units
Radioactivity in Fat (10 min): 0.50 Uptake Units
Radioactivity in Heart (ventricle) (10 min): 2.20 Uptake Units
Radioactivity in Hippocampus (10 min): 1.81 Uptake Units
Radioactivity in Hypothalamus (10 min): 2.13 Uptake Units
Radioactivity in Inferior collicull (10 min): 2.69 Uptake Units
Radioactivity in Kidney (10 min): 5.72 Uptake Units
Radioactivity in Large intestine (10 min): 1.92 Uptake Units
Radioactivity in Lge. intestine content (10 min): 0.17 Uptake Units
Radioactivity in Liver (10 min): 4.38 Uptake Units
Radioactivity in Lung (10 min): 35.3 Uptake Units
Radioactivity in Medulla with Pons (10 min): 2.26 Uptake Units
Radioactivity in Olfactory bulbs (10 min): 1.91 Uptake Units
Radioactivity in Olfactory tubercles (10 min): 2.14 Uptake Units
Radioactivity in Prefrontal cortex (10 min): 2.52 Uptake Units
Radioactivity in Skeletal muscle (10 min): 1.05 Uptake Units
Radioactivity in Skin (10 min): 0.70 Uptake Units
Radioactivity in Sm. intestine content (10 min): 5.31 Uptake Units
Radioactivity in Small intestine (10 min): 2.49 Uptake Units
Radioactivity in Somatosensory cortex (10 min): 2.49 Uptake Units
Radioactivity in Spleen (10 min): 4.31 Uptake Units
Radioactivity in Stomach (10 min): 0.82 Uptake Units
Radioactivity in Striata (10 min): 2.17 Uptake Units
Radioactivity in Superior collicull (10 min): 2.35 Uptake Units
Radioactivity in Testis (10 min): 0.66 Uptake Units
Radioactivity in Thalamus (10 min): 2.39 Uptake Units
Radioactivity in Urine (10 min): 10.9 Uptake Units
Radioactivity in Visual cortex (10 min): 2.80 Uptake Units
Radioactivity in Plasma (10 min): 0.19 Uptake Units
Radioactivity in Whole blood (10 min): 0.21 Uptake Units
Radioactivity in Cerebellum (15 min): 1.81 Uptake Units
Radioactivity in Entorhinal cortex (15 min): 1.93 Uptake Units
Radioactivity in Fat (15 min): 0.75 Uptake Units
Radioactivity in Heart (ventricle) (15 min): 1.63 Uptake Units
Radioactivity in Hippocampus (15 min): 1.74 Uptake Units
Radioactivity in Hypothalamus (15 min): 1.85 Uptake Units
Radioactivity in Inferior collicull (15 min): 2.22 Uptake Units
Radioactivity in Kidney (15 min): 4.78 Uptake Units
Radioactivity in Large intestine (15 min): 1.65 Uptake Units
Radioactivity in Lge. intestine content (15 min): 0.03 Uptake Units
Radioactivity in Liver (15 min): 6.87 Uptake Units
Radioactivity in Lung (15 min): 10.7 Uptake Units
Radioactivity in Medulla with Pons (15 min): 1.92 Uptake Units
Radioactivity in Olfactory bulbs (15 min): 1.72 Uptake Units
Radioactivity in Olfactory tubercles (15 min): 1.92 Uptake Units
Radioactivity in Prefrontal cortex (15 min): 2.32 Uptake Units
Radioactivity in Skeletal muscle (15 min): 1.07 Uptake Units
Radioactivity in Skin (15 min): 0.51 Uptake Units
Radioactivity in Sm. intestine content (15 min): 9.63 Uptake Units
Radioactivity in Small intestine (15 min): 2.79 Uptake Units
Radioactivity in Somatosensory cortex (15 min): 2.24 Uptake Units
Radioactivity in Spleen (15 min): 4.46 Uptake Units
Radioactivity in Stomach (15 min): 2.07 Uptake Units
Radioactivity in Striata (15 min): 1.92 Uptake Units
Radioactivity in Superior collicull (15 min): 2.01 Uptake Units
Radioactivity in Testis (15 min): 0.66 Uptake Units
Radioactivity in Thalamus (15 min): 2.21 Uptake Units
Radioactivity in Urine (15 min): 22.0 Uptake Units
Radioactivity in Visual cortex (15 min): 2.28 Uptake Units
Radioactivity in Plasma (15 min): 0.17 Uptake Units
Radioactivity in Whole blood (15 min): 0.19 Uptake Units
Radioactivity in Cerebellum (20 min): 1.45* Uptake Units
Radioactivity in Entorhinal cortex (20 min): 1.80 Uptake Units
Radioactivity in Fat (20 min): 0.40* Uptake Units
Radioactivity in Heart (ventricle) (20 min): 1.10* Uptake Units
Radioactivity in Hippocampus (20 min): 1.60 Uptake Units
Radioactivity in Hypothalamus (20 min): 1.67 Uptake Units
Radioactivity in Inferior collicull (20 min): 1.97 Uptake Units
Radioactivity in Kidney (20 min): 3.19* Uptake Units
Radioactivity in Large intestine (20 min): 1.27* Uptake Units
Radioactivity in Lge. intestine content (20 min): 0.28* Uptake Units
Radioactivity in Liver (20 min): 6.47* Uptake Units
Radioactivity in Lung (20 min): 14.0* Uptake Units
Radioactivity in Medulla with Pons (20 min): 1.68 Uptake Units
Radioactivity in Olfactory bulbs (20 min): 1.46 Uptake Units
Radioactivity in Olfactory tubercles (20 min): 1.73 Uptake Units
Radioactivity in Prefrontal cortex (20 min): 1.94* Uptake Units
Radioactivity in Skeletal muscle (20 min): 0.96* Uptake Units
Radioactivity in Skin (20 min): 0.68* Uptake Units
Radioactivity in Sm. intestine content (20 min): 6.08* Uptake Units
Radioactivity in Small intestine (20 min): 2.16* Uptake Units
Radioactivity in Somatosensory cortex (20 min): 2.03 Uptake Units
Radioactivity in Spleen (20 min): 3.26* Uptake Units
Radioactivity in Stomach (20 min): 0.67* Uptake Units
Radioactivity in Striata (20 min): 1.65* Uptake Units
Radioactivity in Superior collicull (20 min): 1.64 Uptake Units
Radioactivity in Testis (20 min): 0.73* Uptake Units
Radioactivity in Thalamus (20 min): 2.01 Uptake Units
Radioactivity in Urine (20 min): 10.7* Uptake Units
Radioactivity in Visual cortex (20 min): 2.07 Uptake Units
Radioactivity in Plasma (20 min): 0.17 Uptake Units
Radioactivity in Whole blood (20 min): 0.18 Uptake Units
Radioactivity in Cerebellum (30 min): 0.55 Uptake Units
